Patent publication US20230255864A1, “NOVEL COMPOSITIONS COMBINING HEMP DERIVATIVES AND AT LEAST ONE PEPTIDE AND USE THEREOF” (FRANCE COSMEPHYL-LAB, priority 2020, published 2023)

Columns and labels:
[1] = tested on: RAW 267.4 murine macrophages; test: Cell viability of murine macrophages (WST-1 mitochondrial respiration), in parallel with NO release; assay type: cell-based; conditions: Mus musculus, RAW267.4; non-linear regression of 3 series of experiments; positive control
Protocol: (§1) MURINS RAW 267.4 Macrophage cell line (Sigma-Aldrich, No. P6110401, Lot. 091006), low number of passages (less than 50).
(§2) Complete medium: DMEM with stabilized L-glutamine (Dulbecco's Minimum Essential Medium, PAN BIOTECH. Lot 974251) supplemented with Penicillin 100 IU/ml and streptomycin 100 μg/m1 (PAN BIOTECH, Lot 225614), and 10% inactivated calf serum (PAN BIOTECH, Lot P460518), pH 7.2, freshly prepared, stored for less than 3 weeks.
(§3) Cannabidiol (CBD) is diluted in DMSO (10 mg/mL storage solution), and subjected to an ultrasonic bath for 20 minutes. The Neutrazen™ solution is diluted in PBS (Phosphate buffer saline, Sigma-Aldrich).
(§4) RAW 267.4 murine macrophages were inoculated into 48-well tissue culture plates at a concentration of 1.10^5 cells/ml (200 μl/well) and incubated for 24 hours at 37° C. (5% CO2).
(§5) At the end of the incubation period, the culture medium was replaced with 200 μl of medium containing the appropriate concentrations of the material to be tested, and the cells were incubated at 37° C. (5% CO2) for one hour.
(§6) At the end of the incubation period, pro-inflammatory E. coli LPS was added to the cell cultures (1 μg/ml. Then the cells were incubated at 37° C. (5% CO2) for 24 hours.
In parallel with the evaluation of the release of NO, the cell viability was measured to validate the tests. Vital Stain Reagent WST-1 was used to measure cellular mitochondrial respiration. For this, the culture medium was decanted and 100 μl of WST-1 reagent ( 1/10 dilution) were added to each well. After an incubation period of 30 min at 37° C. (5% CO2), the Optical Density (OD) of each well was read at a wavelength of 450 nm by an Infinite M200 Pro fluorescence-luminescence reader (TECAN). The results obtained for the wells treated with the test material were compared with those of the untreated control wells (DMSO, 100% viability) and converted into percentage values.
Inhibition of NO release and inhibition of cell viability were expressed as a percentage relative to the negative controls: […]
(§7) The concentrations of test material causing a 50% decrease in NO release (IC50 (NO release)) and a 50% decrease in cell viability (IC50 (cell viability)) respectively were calculated using TableCurve software Version 2.0.
Analysis of the anti-inflammatory activity and of the cell viability of the cannabidiol/palmitoyl tripeptide-8 (Neutrazen™) association in a mixture by isobologram analysis. For each concentration of Neutrazen™ (0.01, 0.025, 0.05 and 0.1%), different concentrations of CBD are tested (0.01, 0.025, 0.05, 0.1, 0.25, 0.5, 1 and 2.5%) to determine both the production of NO and cell viability.
The results obtained with the different mixtures of CBD and Neutrazen™ made it possible to calculate the pairs of concentrations corresponding to a 50% reduction in the production of NO and a 50% reduction in cell viability.

[2] = tested on: murine macrophages (RAW 267.4 cell line) stimulated with LPS from E. coli; test: In vitro anti-inflammatory test: inhibition of NO production in LPS-stimulated murine macrophages (Griess reaction); assay type: cell-based
Source text: Low-grade inflammation is strongly implicated in degenerative processes in human skin such as photoaging and atopy. The reduction of low-intensity inflammatory reactions by topical products may be necessary in the event of cutaneous aggression, to obtain optimal healing and restore the physiological balance of human skin. In order to identify new anti-inflammatory candidates, an in vitro anti-inflammatory test was developed with a murine cell line: the murine macrophage test RAW 267.4. This test was used to monitor the inhibitory effects of chemical compounds or natural extracts on the low-intensity inflammatory cascade leading to overproduction of nitrogen oxide (NO) in the endothelial wall of blood vessels.
The study was carried out to evaluate the ability of cannabidiol, palmitoyl tripeptide-8 (active ingredient in Neutrazen™), and their mixture to inhibit the pro-inflammatory cascade leading to the production of NO in murine macrophages stimulated by liposaccharides (LPS).
The in vitro anti-inflammatory test is based on the ability of murine macrophages to generate a strong inflammatory response when stimulated by antigens such as LPS. Immobilized murine macrophages (RAW 267.4 cell line) are stimulated with LPS from E. coli and exposed for 24 hours. At the end of the incubation period, the production of NO is evaluated indirectly by measuring the accumulation of nitrite/nitrate, stable final products of the oxidation of NO, in the culture medium using a method spectrophotometric based on the Griess reaction.
as §1, §2, §3
The negative control: DMSO 1% The positive control: Dexamethasone (Sigma-Aldrich) 1-5-10-50-100 μM.
as §4, §5, §6
The amount of NO released was measured in the culture supernatant by the Griess reaction. 100 μl of the supernatants were transferred into the wells of a 96-well tissue culture plate, and modified Griess reagent (SIGMA-ALDRICH) were added to each well. After a period of 15 min at room temperature, the Optical Density (OD) of each well was read at a wavelength of 540 nm by an Infinite M200 Pro fluorescence-luminescence reader (TECAN).
as §7
The anti-inflammatory ratio corresponds to the ratio between anti-inflammatory activity and toxicity. It is expressed as follows: […]
Analysis of the anti-inflammatory activity and of the cell viability of the cannabidiol/palmitoyl tripeptide-8 (Neutrazen™) association in a mixture by isobologram analysis.

## C[C@@H]1C[C@H]2[C@@H]3CCC4=CC(=O)C=C[C@]4(C)[C@@]3(F)[C@@H](O)C[C@]2(C)[C@@]1(O)C(=O)CO [Dexamethasone]
[1]
  IC50: 193 ± 4.25 µM
[2]; Mus musculus, RAW267.4, non-linear regression of 3 series of experiments, positive control, read-out: IC50-NO release
  IC50: 2.98 µM
[2]; ratio between anti-inflammatory activity and toxicity (IC50 NO release and IC50 cell viability)
  Anti-inflammatory ratio: 64.65
